Results on 61 molecules are retold here after PubChem BioAssay AID1205 (EPA DSSTox, 2008).

Activity calls are given as the source filed them.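 The calls were made as follows: active = tumour findings in long-term animal cancer tests in more than one sex, species or organ; inactive = no tumour finding and more than one negative test.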

A short description of the series: DSSTox (CPDBAS) Carcinogenic Potency Database Summary MultiCellCall Results. The conditions noted are these: animal carcinogenicity bioassays, multi-cell call summary. Put shortly:
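Summary call drawn from chronic long-term cancer bioassays in rats, mice, hamsters, dogs and nonhuman primates, using the most positive result per sex-species. Score: multispecies=50, multisex=30, multisite=20, summed for combinations.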

`CCCCN(CCCC)N=O`: the outcome is “active; multisite active; multispecies active”.
With `Cn1nc(CO)nc1NCCCOc1cccc(CN2CCCCC2)c1` the entry was “active; multisex active”.
With `CC(O)CN(CC(C)O)N=O` (stereo unspecified) the entry was “active; multisite active; multisex active”; with `Cc1c(N(C)CS(=O)(=O)O)c(=O)n(-c2ccccc2)n1C`, “active; multisex active”.
Under `CN(C)C(=O)NC1CC2CC1C1CCCC21` (stereo unspecified) stands “inactive; multisex inactive”; under `CN(C)C(=S)[S][Bi]([S]C(=S)N(C)C)[S]C(=S)N(C)C`, “inactive; multisex inactive”; under `O=NN1CCC(=O)NC1=O`, “active; multisex active”.
For `COC(=O)NN`, the outcome is “inactive; multisex inactive”.
For the molecule `CNC(=O)O/N=C/C(C)(C)SC`, the outcome was “inactive; multisex inactive; multispecies inactive”.
In the case of `O=NN1CCCCCCCCCCCC1`, the outcome is “active; multisex active”.
`O=C(Nc1cccc2c(=O)cc(-c3nn[nH]n3)oc12)c1ccc(OCCCCc2ccccc2)cc1`: the outcome was “inactive; multisex inactive”.
With `O=c1ccc(=O)[nH][nH]1` the entry was “inactive; multisex inactive; multispecies inactive”; with `CCC[CH2][Sn]([CH2]CCC)([O]C(C)=O)[O]C(C)=O`, “inactive; multisex inactive; multispecies inactive”; with `CC(=O)[O][Sn]([c]1ccccc1)([c]1ccccc1)[c]1ccccc1`, “inactive; multisex inactive”.
As for `Cc1cc(Cc2cc(C)cc(C(C)(C)C)c2O)c(O)c(C(C)(C)C)c1`, the outcome was “inactive; multisex inactive”.
For the molecule `Nc1ncn[nH]1`, the outcome is “active; multisite active; multisex active; multispecies active”.
Turning to `ClCc1cccnc1`, the outcome was “active; multisex active; multispecies active”.
On to `O=[As](O)(O)O`, for which the outcome is “inactive; multispecies inactive”.
For `Nc1cccc2c(N)cccc12`, the outcome was “active; multisite active; multisex active; multispecies active”.
Turning to `Brc1cc(Br)c(-c2cc(Br)c(Br)cc2Br)cc1Br`, the outcome was “active; multisex active; multispecies active”.
As to `OC[C@H]1O[C@@H]2O[C@H]3[C@H](O)[C@@H](O)[C@@H](O[C@H]4[C@H](O)[C@@H](O)[C@@H](O[C@H]5[C@H](O)[C@@H](O)[C@@H](O[C@H]6[C@H](O)[C@@H](O)[C@@H](O[C@H]7[C@H](O)[C@@H](O)[C@@H](O[C@H]8[C@H](O)[C@@H](O)[C@@H](O[C@H]1[C@H](O)[C@H]2O)O[C@@H]8CO)O[C@@H]7CO)O[C@@H]6CO)O[C@@H]5CO)O[C@@H]4CO)O[C@@H]3CO`, the outcome was “inactive; multisex inactive; multispecies inactive”.
On to `CC(C)(Oc1ccc(C2CCCc3ccccc32)cc1)C(=O)O` (stereo unspecified), for which the outcome is “active; multisite active; multisex active”.
For `O.O.O.O.O.O.O=S(=O)([O-])[O-].[Ni+2]`, the outcome was “inactive; multisex inactive; multispecies inactive”.
Turning to `C#CC(OC(N)=O)(c1ccccc1)c1ccc(Cl)cc1` (stereo unspecified), the outcome is “active; multisite active”.
Regarding `FC(F)(Cl)C(F)(Cl)Cl`, the outcome is “inactive; multisex inactive”.
With `O=C1CCCCCN1`, the outcome is “inactive; multisex inactive; multispecies inactive”.
As for `CC(=O)Nc1ccc2c(c1)C(=O)c1ccccc1-2`, the outcome is “active; multisite active”.
Take `C1CO1`: the outcome is “active; multisite active; multisex active; multispecies active”.
Take `CN(CCO)N=O`: the outcome is “active; multisite active”.
With `CC(=O)CN(CCO)N=O`, the outcome was “active; multisite active; multispecies active”.
`CCN(CC)N=O`: the outcome was “active; multisite active; multisex active; multispecies active”.
On to `c1ccc(-c2ccccc2)cc1`, for which the outcome was “inactive; multisex inactive”.
With `OC[P+](CO)(CO)CO`, the outcome is “inactive; multisex inactive; multispecies inactive”.
As for `CC(Oc1cc(Cl)ccc1Cl)C(=O)O` (stereo unspecified), the outcome was “inactive; multisex inactive”.
With `O=C(O)COc1ccc(Cl)cc1Cl` the entry was “inactive; multisex inactive; multispecies inactive”.
Consider `O=[N+]([O-])c1ccccc1`, for which the outcome is “active; multisite active; multisex active; multispecies active”.
As for `NC(=O)N(CCc1ccccc1)N=O`, the outcome is “active; multisite active; multisex active”.
Regarding `CNCc1ccc(CSCCNC(=NCC(O)c2ccc(O)cc2)NS(C)(=O)=O)o1` (stereo unspecified), the outcome is “active; multisex active”.
Turning to `CN(C)CCN(Cc1cccs1)c1ccccc1`, the outcome is “inactive; multisex inactive”.
Under `CCNC(=O)N(CCN(C)C)N=O` stands “active; multisite active”; under `C=CN1CCCC1=O`, “active; multisite active; multisex active”.
On to `Nc1cc(S(=O)(=O)O)cc2cc(S(=O)(=O)O)c(N=Nc3ccc(-c4ccc(N=Nc5c(S(=O)(=O)O)cc6cc(S(=O)(=O)O)cc(N)c6c5O)cc4)cc3)c(O)c12`, for which the outcome was “active; multisex active”.
As to `Nc1ccc(N=Nc2ccc(-c3ccc(N=Nc4c(S(=O)(=O)O)cc5cc(S(=O)(=O)O)c(N=Nc6ccccc6)c(O)c5c4N)cc3)cc2)c(N)c1`, the outcome was “active; multisite active; multisex active; multispecies active”.
Consider `O=NN1C[C@H](O)C[C@H]1C(=O)O`, for which the outcome is “inactive; multisex inactive”.
Under `CN(CCCO)N=O` stands “active; multisite active; multisex active”; under `COc1cc(-c2ccc(N)c(OC)c2)ccc1N`, “active; multisite active; multisex active; multispecies active”; under `CC(=O)Nc1ccc(CC(=O)O)cc1`, “inactive; multisex inactive; multispecies inactive”.
As for `CCCCOC(=O)COc1ccc(Cl)cc1Cl`, the outcome is “inactive; multisex inactive”.
Under `O=C1c2cccc(O)c2C(=O)c2c(O)cccc21` stands “active; multisite active; multispecies active”; under `Cc1cc2ncccc2c2nc(N)n(C)c12`, “active; multisite active; multisex active”.
With `CC(=O)CN(C)N=O` the entry was “active; multisite active; multisex active”; with `Clc1ccc(C(c2ccc(Cl)cc2)C(Cl)(Cl)Cl)cc1`, “active; multisite active; multisex active; multispecies active”; with `COc1cc(/C=C/C(=O)O[C@H]2CC[C@]34C[C@]35CC[C@]3(C)[C@@H]([C@H](C)CCC=C(C)C)CC[C@@]3(C)[C@@H]5CC[C@H]4C2(C)C)ccc1O`, “inactive; multisex inactive; multispecies inactive”.
As for `CCC[N+](=O)[O-]`, the outcome was “inactive; multisex inactive”.
In the case of `CNC(=O)CSP(=S)(OC)OC`, the outcome is “inactive; multisex inactive; multispecies inactive”.
Regarding `Cc1ccc(O)c(O)c1`, the outcome is “active; multisex active”.
Regarding `O=C(O)c1cc(Oc2ccc(C(F)(F)F)cc2Cl)ccc1[N+](=O)[O-]`, the outcome was “active; multisite active; multisex active”.
Consider `Oc1ccc(Cl)cc1Cl`, for which the outcome is “inactive; multisex inactive; multispecies inactive”.
With `CC(C)(C)c1cc([N+](=O)[O-])cc([N+](=O)[O-])c1OS(C)(=O)=O` the entry was “inactive; multisex inactive”.
With `Cc1cc(N)ccc1N` the entry was “inactive; multisex inactive; multispecies inactive”; with `CN(N=O)C(N)=O`, “active; multisite active; multispecies active”.
